The target of experiment [1] is T1, CRTH2 (KB8 cells) (Homo sapiens, UniProt Q9Y5Y4).
T1 construct: host or cells: KB8 cells (human CRTH2 expression cell)
T1 sequence (Q9Y5Y4 1-395): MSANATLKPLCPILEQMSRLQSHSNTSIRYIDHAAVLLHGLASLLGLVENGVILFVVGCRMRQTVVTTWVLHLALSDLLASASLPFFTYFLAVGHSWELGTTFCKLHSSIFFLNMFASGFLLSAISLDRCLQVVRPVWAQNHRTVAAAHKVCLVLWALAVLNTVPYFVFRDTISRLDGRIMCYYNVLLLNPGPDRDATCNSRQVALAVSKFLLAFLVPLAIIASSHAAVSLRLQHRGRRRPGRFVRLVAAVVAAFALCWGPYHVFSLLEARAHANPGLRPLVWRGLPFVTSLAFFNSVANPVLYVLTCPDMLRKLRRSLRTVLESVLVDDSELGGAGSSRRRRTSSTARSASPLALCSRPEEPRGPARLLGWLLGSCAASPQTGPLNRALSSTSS
As to the kind of experiment: CRTH2 antagonist test (PGD2-induced intracellular calcium ion concentration increase in KB8 cells). The format is cell-based. An outline of the steps: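 Fluo-4-AM-loaded KB8 cells in HBSS with 10 mM HEPES and 1 mM CaCl2 received compound plus PGD2 (final 100 nM); peak fluorescence followed over time. Inhibition was computed against no-compound and unlabelled-PGD2 controls, and IC50 obtained from a dose-response curve.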
Background: Calcium assays in cells follow changes in intracellular calcium, usually with a dye or a luminescent sensor.

Experiment [2] concerns the target T2, human CRTH2 expression cell KB8 (Homo sapiens, UniProt Q9Y5Y4).
T2 construct: host or cells: KB8 cells (human CRTH2 expression cell)
T2 sequence (Q9Y5Y4 1-395): T1 sequence (Q9Y5Y4 1-395)
Briefly: CRTH2 binding test (3H-PGD2 binding to KB8 cells). The settings on record: 3H-PGD2 5 nM, 4° C., one hour. As to the method:
CRTH2 binding inhibitory activity of the compound of the present invention was considered by using a binding test between human CRTH2 expression cell KB8 (BML, INC.) and ^3H-labeled prostaglandin D2 (hereinafter, abbreviated as ^3H-PGD2, manufactured by GE Healthcare).
KB8 was suspended in a reaction buffer solution (Hank's balanced salt solution (Invitrogen) containing 10 mM HEPES (Invitrogen)), which was dispensed in a 96 well plate (Coaster) so that 2×10^5 cells/well are placed. Furthermore, the compound of the present invention and ^3H-PGD2 (final concentration: 5 nM) were added, stirred, and incubated at 4° C.
One hour later, cells were collected on GF/C Filter Plate (PerkinElmer) that had been pre-coated with 0.5% polyethyleneimine solution (SIGMA) by using a Cell Harvester (Packard BioScience), and the radioactivity of the cells was measured by using Top count NXT (PerkinElmer) (a value measured herein was represented by a measurement value “a”). The same procedure was carried out in the absence of the compound, and a measurement value “b” was obtained; and the same procedure was carried out in the absence of the compound and in the presence of non-labeled PGD2 (final concentration: 50 μM), a measurement value “c” was obtained.
The binding inhibition rate of the compound was calculated by the following calculation formula: Bonding inhibitory rate(%)=[1−(a−c)/(b−c)]×100
That is to say, by using binding inhibition rates of compounds to be tested having various concentrations, the IC50 value was calculated according to a dose-dependent inhibition curve analyzed by using XLfit (IDBS) as a data analysis software, and the calculated value was defined as an indicator of the inhibitory activity. In Table 9, A denotes an inhibitory activity showing the IC50 value of less than 50 nM; B denotes an inhibitory activity showing the IC50 value of 50 nM or greater and less than 500 nM; C denotes an inhibitory activity showing the IC50 value of 500 nM or greater and less than 1000 nM; and D denotes an inhibitory activity showing the IC50 value of 1000 nM or greater.

[3] abbreviates: PGD2 final concentration 100 nM, Fluo-4-AM fluorescence, read-out: antagonist activity (IC50 value, inhibition of calcium ion concentration increase).
Where [4] appears, read: IC50 class, read-out: binding inhibitory activity.

The structures appear in SMILES notation. Read-outs that look alike come from different tables or passages of the source. A value given as a limit tells only on which side of the number the result lay.

For `O=C(O)Cc1cnc(C(=O)c2ccc(NC(=O)Nc3ccc(Cl)c(Cl)c3)cc2)c2ccccc12` [Example 130, {1-[(4-{[(3,4-dichlorophenyl)carbamoyl]amino}phenyl)carbonyl]isoquinolin-4-yl}acetic acid], the IC50 in experiment [1] (setting [3]) and in experiment [2] (setting [4]) was < 50 nM each time.

Take `O=C(O)Cc1cnc(C(=O)c2ccc(NC(=O)OCc3ccc(Cl)c(Cl)c3)cc2)c2ccccc12` [Example 131, (1-{[4-({[(3,4-dichlorobenzyl)oxy]carbonyl}amino)phenyl]carbonyl}isoquinolin-4-yl)acetic acid]: the IC50 in experiment [1] (setting [3]) and in experiment [2] (setting [4]) was < 50 nM throughout.

Take `O=C(O)Cc1cnc(C(=O)c2ccc(NC(=O)NCc3ccc(Cl)c(Cl)c3)cc2)c2ccccc12` [Example 132, {1-[(4-{[(3,4-dichlorobenzyl)carbamoyl]amino}phenyl)carbonyl]isoquinolin-4-yl}acetic acid]: the IC50 in experiment [1] (setting [3]) is 50 to 500 nM; in experiment [2] (setting [4]), < 50 nM.

Consider `O=C(O)Cc1cnc(C(=O)c2ccc(NCc3ccc(Cl)c(Cl)c3)cc2)c2ccccc12` [Example 133, [1-({4-[(3,4-dichlorobenzyl)amino]phenyl}carbonyl)isoquinolin-4-yl]acetic acid], for which the IC50 in experiment [1] (setting [3]) and in experiment [2] (setting [4]) was < 50 nM throughout.

For `O=C(O)Cc1cnc(C(=O)c2ccc(OCc3ccc(Cl)c(Cl)c3)cc2)c2ccccc12` [Example 134, [1-({4-[(3,4-dichlorobenzyl)oxy]phenyl}carbonyl)isoquinolin-4-yl]acetic acid], the figures for the IC50 in experiment [1] (setting [3]) and in experiment [2] (setting [4]) were 50 to 500 nM and < 50 nM, respectively.

On to `O=C(O)Cc1cnc(C(=O)c2ccc(C(=O)NCCc3ccc(Cl)cc3)cc2)c2ccccc12` [Example 135, {1-[(4-{[2-(4-chlorophenyl)ethyl]carbamoyl}phenyl)carbonyl]isoquinolin-4-yl}acetic acid], for which the IC50 in experiment [1] (setting [3]) and in experiment [2] (setting [4]) was < 50 nM throughout.

For `O=C(O)Cc1cnc(C(=O)c2ccc(C(=O)Nc3ccc(Cl)c(Cl)c3)cc2)c2ccccc12` [Example 136], the IC50 in experiment [1] (setting [3]) and in experiment [2] (setting [4]) was < 50 nM throughout.

Consider `O=C(O)Cc1cnc(C(=O)c2ccc(C(=O)NCCc3ccc(Cl)c(Cl)c3)cc2)c2ccccc12` [Example 137], for which the IC50 in experiment [1] (setting [3]) and in experiment [2] (setting [4]) was < 50 nM in each case.

Regarding `COc1ccc(CCNC(=O)c2ccc(C(=O)c3ncc(CC(=O)O)c4ccccc34)cc2)cc1` [Example 138], the IC50 in experiment [1] (setting [3]) and in experiment [2] (setting [4]) was < 50 nM in each case.

For the molecule `O=C(O)Cc1cnc(C(=O)c2ccc(C(=O)NCCc3cccc(Cl)c3)cc2)c2ccccc12` [Example 139], the IC50 in experiment [1] (setting [3]) and in experiment [2] (setting [4]) was < 50 nM each time.

With `O=C(O)Cc1cnc(C(=O)c2ccc(OCCc3ccc(Cl)cc3)cc2)c2ccccc12` [Example 141, [1-({4-[2-(4-chlorophenyl)ethoxy]phenyl}carbonyl)isoquinolin-4-yl]acetic acid], the results for the IC50 in experiment [1] (setting [3]) and in experiment [2] (setting [4]) were 50 to 500 nM and < 50 nM, respectively.

Regarding `O=C(O)Cc1cnc(C(=O)c2ccc(OCCCc3ccc(Cl)cc3)cc2)c2ccccc12` [Example 142], the IC50 in experiment [1] (setting [3]) is 50 to 500 nM; in experiment [2] (setting [4]), < 50 nM.

For `O=C(O)Cc1cnc(C(=O)c2ccc(OCCOc3ccc(Cl)cc3)cc2)c2ccccc12` [Example 143], the results for the IC50 in experiment [1] (setting [3]), in experiment [2] (setting [4]) and in experiment [2] (read-out: CRTH2 binding inhibitory activity IC50 value) were 50 to 500 nM, < 50 nM and 9.9 nM, respectively.

In the case of `O=C(O)Cc1cnc(Cc2ccc(NC(=O)c3ccc(Cl)c(Cl)c3)cc2)c2ccccc12` [Example 148, [1-(4-{[(3,4-dichlorophenyl)carbonyl]amino}benzyl)isoquinolin-4-yl]acetic acid], the IC50 in experiment [1] (setting [3]) and in experiment [2] (setting [4]) was < 50 nM throughout.

Regarding `O=C(O)Cc1cnc(Cc2ccc(C(=O)NCCc3ccc(Cl)cc3)cc2)c2ccccc12` [Example 153, [1-(4-{[2-(4-chlorophenyl)ethyl]carbamoyl}benzyl)isoquinolin-4-yl]acetic acid], the IC50 in experiment [1] (PGD2 100 nM, Fluo-4 calcium fluorescence, read-out: CRTH2 antagonist activity IC50 value) is 12 nM; in experiment [1] (setting [3]) it was < 50 nM; in experiment [2] (setting [4]), < 50 nM.

The values are drawn from patent US8461329B2, “Isoquinoline derivative” (Taisho Pharmaceutical Co., Ltd., priority 2008, dated 2013).
